Test results reported in PMC2824011 (Analytical biochemistry, 2009).

How the values were obtained:
[1] = target: T1, human lysosomal mannosidase (HLM) (Homo sapiens, UniProt O00754); assay: continuous fluorometric turnover assay of purified enzyme, pH […]; format: biochemical
T1 sequence (O00754 50-1011): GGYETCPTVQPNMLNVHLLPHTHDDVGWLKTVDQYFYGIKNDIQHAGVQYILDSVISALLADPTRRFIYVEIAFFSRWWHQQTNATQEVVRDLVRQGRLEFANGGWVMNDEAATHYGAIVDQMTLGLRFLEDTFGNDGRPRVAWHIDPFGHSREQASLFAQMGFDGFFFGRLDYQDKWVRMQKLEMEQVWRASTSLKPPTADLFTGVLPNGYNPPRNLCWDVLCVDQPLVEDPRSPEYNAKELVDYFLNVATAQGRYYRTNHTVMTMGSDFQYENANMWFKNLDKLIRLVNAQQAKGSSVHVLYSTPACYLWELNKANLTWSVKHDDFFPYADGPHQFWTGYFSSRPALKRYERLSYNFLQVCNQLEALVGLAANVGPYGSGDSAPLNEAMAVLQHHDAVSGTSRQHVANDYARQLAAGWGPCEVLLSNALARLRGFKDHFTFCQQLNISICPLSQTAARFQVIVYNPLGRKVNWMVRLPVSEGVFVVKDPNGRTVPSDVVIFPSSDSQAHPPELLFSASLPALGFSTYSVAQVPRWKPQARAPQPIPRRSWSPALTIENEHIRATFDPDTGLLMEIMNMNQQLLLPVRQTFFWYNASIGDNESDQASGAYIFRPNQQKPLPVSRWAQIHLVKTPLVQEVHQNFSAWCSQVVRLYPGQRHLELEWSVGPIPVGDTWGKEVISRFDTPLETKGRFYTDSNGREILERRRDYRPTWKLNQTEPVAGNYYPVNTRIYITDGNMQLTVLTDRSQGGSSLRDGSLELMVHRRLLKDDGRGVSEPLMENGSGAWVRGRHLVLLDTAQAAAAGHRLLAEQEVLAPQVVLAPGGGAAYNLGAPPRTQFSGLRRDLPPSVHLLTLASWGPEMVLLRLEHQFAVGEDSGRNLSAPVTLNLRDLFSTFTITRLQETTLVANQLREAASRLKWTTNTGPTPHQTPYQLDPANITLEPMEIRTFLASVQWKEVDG

[2] = target: T2, Golgi α-mannosidase II (dGMII) (Drosophila melanogaster, UniProt Q24451); assay: continuous fluorometric enzyme assay with Res-Man substrate, pH […]; format: biochemical
T2 sequence (Q24451 76-1108): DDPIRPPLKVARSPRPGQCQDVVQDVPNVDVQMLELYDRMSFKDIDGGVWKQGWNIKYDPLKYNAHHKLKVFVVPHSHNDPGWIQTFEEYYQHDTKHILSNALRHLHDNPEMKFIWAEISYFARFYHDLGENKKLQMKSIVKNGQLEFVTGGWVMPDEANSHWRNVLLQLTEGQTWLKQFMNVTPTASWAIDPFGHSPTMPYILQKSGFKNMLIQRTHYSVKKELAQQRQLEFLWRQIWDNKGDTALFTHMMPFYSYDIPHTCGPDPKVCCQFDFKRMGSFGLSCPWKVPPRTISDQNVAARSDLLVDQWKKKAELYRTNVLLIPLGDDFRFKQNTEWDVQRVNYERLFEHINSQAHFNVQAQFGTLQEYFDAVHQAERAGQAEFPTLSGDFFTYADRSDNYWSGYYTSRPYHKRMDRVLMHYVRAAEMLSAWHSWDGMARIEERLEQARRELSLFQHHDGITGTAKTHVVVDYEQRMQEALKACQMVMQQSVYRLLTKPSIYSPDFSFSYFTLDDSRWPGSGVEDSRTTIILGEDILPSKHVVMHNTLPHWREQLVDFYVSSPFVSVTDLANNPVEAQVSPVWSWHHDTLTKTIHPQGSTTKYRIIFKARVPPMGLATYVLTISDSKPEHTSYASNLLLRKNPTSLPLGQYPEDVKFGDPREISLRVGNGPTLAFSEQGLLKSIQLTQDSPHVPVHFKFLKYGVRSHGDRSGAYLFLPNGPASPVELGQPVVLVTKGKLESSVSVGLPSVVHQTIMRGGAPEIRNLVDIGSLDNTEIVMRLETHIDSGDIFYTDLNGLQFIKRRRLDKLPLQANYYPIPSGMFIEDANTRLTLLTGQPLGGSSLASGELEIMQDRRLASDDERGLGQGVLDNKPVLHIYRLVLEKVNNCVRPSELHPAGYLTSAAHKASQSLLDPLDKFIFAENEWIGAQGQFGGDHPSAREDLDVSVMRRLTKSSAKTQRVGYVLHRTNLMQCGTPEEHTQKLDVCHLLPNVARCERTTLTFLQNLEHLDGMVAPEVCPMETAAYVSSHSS

SMILES | continuous fluorometric turnover assay of purified enzyme, pH 6.0 [1] | Ki [2]
O=c1ccc2nc3ccc(O[C@H]4O[C@H](CO)[C@@H](O)[C@H](O)[C@@H]4O)cc3oc-2c1 [Res-Man, resorufin α-D-mannopyranoside] | recombinant human lysosomal mannosidase (HLM) (◊) using the substrate resorufin-α-D-mannopyranoside (Res-Man) | –
O[C@H]1[C@H]2[C@H](O)CCCN2C[C@H]1O [swainsonine] | – | 44.7 nM
